From US20040192611A1, “Peptide antioxidants from soy protein” (Kraft Foods Holdings, Inc., priority 2003, published 2004)

test: Antioxidant activity of soy-derived peptides isolated by HPLC (assay not specified); conditions: qualitative statement
Description: In another aspect, the invention is directed to a method of producing a peptide with antioxidant activity. The peptide is made by digesting soy protein isolate (available commercially, e.g., from Protein Technology International, St. Louis, Mo., or using procedures well established in the art) with a protease to produce an aqueous hydrolysate solution. Proteases that may be used for digestion include chymosin, papain, neutrase, promod, and flavozyme and, preferably, either alcalase or corolase. The protease may come from bacterial, plant or fungal sources. The aqueous hydrolysate solution is extracted with an organic solvent, preferably acetone, and the organic phase is selected for further processing. After extraction, solvent may be removed under reduced pressure to concentrate the peptide and the preparation is then fractionated by reverse phase high pressure liquid chromatography (HPLC). Fractions collected during this process may be assayed for antioxidant activity using methods such as those described in the Examples section herein. The identification of fractions containing the peptide may be based upon the presence of antioxidant activity and upon retention time during chromatography. The identity of the peptide within fractions can be confirmed by sequence analysis.
After recovering peptide from the extraction, reverse phase high pressure liquid chromatography may be performed using, for example, a C18 column. […] Fractions collected from the column may be tested for antioxidant activity to identify peaks that are of interest. Finally, specific peptides may be identified by carrying out sequencing experiments.
Fractions with antioxidant activity are collected and subjected to further purification. This is carried out using the mobile phases:
Fractions with antioxidant activity are collected and subject to further purification. In this case, the same mobile phases are used. The flow rate is set at 0.4 ml/min and ultraviolet absorbance is set at 275 nm. The gradient elution program is set as follows: […]

Substance	antioxidant activity
SWWPF (Glycine max)	found to have antioxidant activity
WTY	found to have antioxidant activity
WWMY (Glycine max)	found to have antioxidant activity
